Measurements reported in patent US11014917B2, “5-fluoro-c-(aryl or heterocyclyl)-glycoside derivatives useful as dual SGLT1 / SGLT2 modulators” (Janssen Pharmaceutica NV, priority 2017, dated 2021).

Legend:
human SGLT1 = molecular target: T1, human SGLT1 (Homo sapiens, UniProt P13866); assay: SGLT1 assay: Na-dependent 14C-AMG uptake in CHO-K1 cells stably expressing human SGLT1; assay type: cell-based; settings: for IC50: average if tested more than once; for inhibition at 0.3 µM / SGLT1 %-inhibition: @ 0.3 μM
T1 construct: expressed in transfected cells
T1 sequence (P13866 1-664): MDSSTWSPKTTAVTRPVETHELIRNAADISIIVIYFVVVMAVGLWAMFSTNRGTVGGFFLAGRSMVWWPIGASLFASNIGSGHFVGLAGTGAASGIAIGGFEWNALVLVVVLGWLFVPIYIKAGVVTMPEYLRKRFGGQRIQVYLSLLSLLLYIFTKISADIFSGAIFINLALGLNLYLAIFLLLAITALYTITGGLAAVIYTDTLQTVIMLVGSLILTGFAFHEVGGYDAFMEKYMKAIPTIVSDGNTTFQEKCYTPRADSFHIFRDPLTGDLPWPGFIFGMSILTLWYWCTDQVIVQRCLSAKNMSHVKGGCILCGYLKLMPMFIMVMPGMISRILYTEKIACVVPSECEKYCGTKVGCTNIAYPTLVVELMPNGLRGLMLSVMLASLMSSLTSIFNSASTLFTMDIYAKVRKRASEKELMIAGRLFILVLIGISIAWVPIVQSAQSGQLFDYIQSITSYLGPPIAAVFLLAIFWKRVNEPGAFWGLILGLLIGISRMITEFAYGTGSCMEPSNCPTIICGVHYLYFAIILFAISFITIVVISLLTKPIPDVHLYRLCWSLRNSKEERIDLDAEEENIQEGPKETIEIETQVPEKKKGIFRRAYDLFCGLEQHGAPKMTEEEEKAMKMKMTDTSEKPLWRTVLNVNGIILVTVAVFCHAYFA
Method: (§1) The ability of the compounds of formula (I) of the present invention to treat an SGLT-mediated condition was determined using the following procedures:
(§2) SGLT1 and SGLT2 were cloned in form of cDNA from human small intestine (Genbank M24847), and from human kidney (Genbank M95549), respectively. Subsequently, each full cDNA was subcloned into pcDNA with each construct's integrity verified through follow-on sequencing. To generate CHO-K1 cells that stably express human SGLT1 or human SGLT2, CHO-K1 cells were transfected using DMRIE-C reagent (Life Technologies, Gaithersburg, Md.). Transfected cells were then selected in the presence of 500 μg/ml of the Geneticin (G418 Cellgro Catalog No. 30234-Cl)
(§3) Individual clones were then characterized using the following cell-based assay for sodium-dependent glucose transport:
(§4) Inhibition of SGLT1 and SGLT2 activity was assessed in CHO K1 cells stably expressing either human SGLT1 or SGLT2, using the SGLT specific glucose analog methyl-glucopyranoside (Sigma Catalog No. M-9376). Cells were plated (45,000 cells/well) in white wall 96-well plates (COSTAR, Cat #3903) for 24 hours in growth medium, then a final concentration of 10 mM Na-Butyrate (ALDRICH Cat #30341-0) was added. The cells were incubated for 24 hours. On the day of the assay, cells were rinsed and treated with test compounds (at concentrations of 0.001 μM to 10 μM) in assay buffer (50 mM HEPES, 20 mM Tris base, 5 mM KCl, 1 mM MgCl2, 1 mM CaCl2 and 137 mM NaCl, pH 7.4) for 10 minutes. Cells were then incubated with ^14C-a-methyl-d-glucopyranoside (AMG, Amersham Catalog No. CFB 76), using 0.07 μCi per well in 500 μM AMG final concentration. The cells were incubated for 2 hours at 37° C. with 5% CO2 and washed two times with ice-cold Phosphate Buffer Solution (Cellgro Catalog No. 21030-CV). The cells were then solubilized by adding 60 μl of MICROSCINT™20 and the Na-dependent ^14C-AMG uptake was quantified by measuring radioactivity. Plates were counted in a TopCount (Packard, Meriden, Conn.)
(§5) Representative compounds of the present invention were tested according to the procedures as described in Biological Example 1 and 2 above, with results as listed in Table 5, below. Results are reported as the %-inhibition or IC50 value. Variability for the functional assay was typically within 20%.

human SGLT2 = molecular target: T2, human SGLT2 (Homo sapiens, UniProt P31639); assay: SGLT2 assay: Na-dependent 14C-AMG uptake in CHO-K1 cells stably expressing human SGLT2; assay type: cell-based; settings: for IC50: average if tested more than once
T2 construct: expressed in transfected cells
T2 sequence (P31639 1-672): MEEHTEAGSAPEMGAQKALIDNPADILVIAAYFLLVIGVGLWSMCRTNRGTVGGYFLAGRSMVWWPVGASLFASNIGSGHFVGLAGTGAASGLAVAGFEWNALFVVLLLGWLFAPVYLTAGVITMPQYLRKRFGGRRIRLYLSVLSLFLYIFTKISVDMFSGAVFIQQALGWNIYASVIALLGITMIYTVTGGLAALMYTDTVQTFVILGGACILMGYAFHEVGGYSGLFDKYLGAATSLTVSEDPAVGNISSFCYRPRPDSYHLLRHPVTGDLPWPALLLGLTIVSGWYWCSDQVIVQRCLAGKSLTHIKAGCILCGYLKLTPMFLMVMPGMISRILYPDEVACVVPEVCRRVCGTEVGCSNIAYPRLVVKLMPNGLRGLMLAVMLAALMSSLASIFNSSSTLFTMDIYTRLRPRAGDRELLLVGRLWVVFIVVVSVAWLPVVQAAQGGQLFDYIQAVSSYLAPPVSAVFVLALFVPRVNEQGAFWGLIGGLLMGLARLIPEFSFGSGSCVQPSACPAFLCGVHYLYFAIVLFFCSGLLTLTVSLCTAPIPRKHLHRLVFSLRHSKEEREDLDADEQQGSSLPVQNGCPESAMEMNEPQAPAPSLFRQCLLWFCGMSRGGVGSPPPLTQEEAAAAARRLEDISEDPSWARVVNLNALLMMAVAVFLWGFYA
Method: as §1, §2, §3, §4, §5

SMILES	IC50 (human SGLT1)	IC50 (human SGLT2)	SGLT2 %-inhibition (human SGLT2; @ 0.3 μM)	also measured
CCOc1c(Cc2ccc3c(c2)OCCO3)cc([C@@H]2O[C@H](CO)[C@@H](F)[C@H](O)[C@H]2O)c2c1CCO2 [Compound 102, (2S,3R,4R,5S,6R)-2-[5-(2,3-dihydro-1,4-benzodioxin-6-ylmethyl)-4-ethoxy-2,3-dihydrobenzofuran-7-yl]-5-fluoro-6-(hydroxymethyl)tetrahydropyran-3,4-diol]	–	–	–	inhibition at 0.3 µM (human SGLT1): 27.6%; inhibition at 0.3 µM (human SGLT2; @ 0.3 μM): 40.7%
CCc1ccc(Cc2cc([C@@H]3O[C@H](CO)[C@@H](F)[C@H](O)[C@H]3O)c(OC)c3c2OCC3)cc1 [Compound 135]	85 nM	8 nM	–	–
OC[C@H]1O[C@@H](c2cc(Cc3ccc4c(c3)OCCO4)c(Cl)c3c2CCO3)[C@H](O)[C@@H](O)[C@@H]1F [Compound 154]	42 nM	2 nM	–	–
COc1cc(OCC#N)c([C@@H]2O[C@H](C(C)O)[C@@H](F)[C@H](O)[C@H]2O)cc1Cc1cc2ccccc2s1 (single isomer, unassigned) [Compound 71]	–	–	30.0% @ 0.3 μM	SGLT1 %-inhibition (human SGLT1): 76.4% @ 0.3 μM
COc1c([C@@H]2O[C@H](CO)[C@@H](F)[C@H](O)[C@H]2O)cc(Cc2ccc(OCF)cc2)c2c1CCO2 [Compound 142]	–	–	85.8% @ 0.3 μM	SGLT1 %-inhibition (human SGLT1): 59.8% @ 0.3 μM
Cc1cc(O)c([C@@H]2O[C@H](CO)[C@@H](F)[C@H](O)[C@H]2O)cc1Cc1cc2c(s1)CCN(C(=O)N1CCOCC1)C2 [Compound 67]	–	–	57.5% @ 0.3 μM	SGLT1 %-inhibition (human SGLT1): 64.9% @ 0.3 μM
COc1cc(O)c(C2OC(C(C)O)C(F)C(O)C2O)cc1Cc1cc2ccccc2s1 (single isomer, unassigned) [Compound 52]	15 nM	9 nM	–	–
COc1c([C@@H]2O[C@H](CO)[C@@H](F)[C@H](O)[C@H]2O)cc(Cc2ccc3c(c2)N(C)CCC3)c2c1CCO2 [Compound 108, (2S,3R,4R,5S,6R)-5-fluoro-6-(hydroxymethyl)-2-(4-methoxy-7-((1-methyl-1,2,3,4-tetrahydroquinolin-7-yl)methyl)-2,3-dihydrobenzofuran-5-yl)-tetrahydro-2H-pyran-3,4-diol]	326 nM	75 nM	–	–
Cc1cc(O)c([C@@H]2O[C@H](C)[C@@H](F)[C@H](O)[C@H]2O)cc1Cc1cc2ccccc2s1 [Compound 16, (2S,3R,4R,5S,6R)-2-(5-(benzo[b]thiophen-2-ylmethyl)-2-hydroxy-4-methylphenyl)-5-fluoro-6-methyl-tetrahydro-2H-pyran-3,4-diol]	111 nM	29 nM	–	–
COc1cc(O)c([C@@H]2O[C@H](CO)[C@@H](F)[C@H](O)[C@H]2O)cc1Cc1cc2c(s1)CCN(C(C)=O)C2 [Compound 79]	126 nM	137 nM	–	–
COc1cc(O)c([C@@H]2O[C@H](CC#N)[C@@H](F)[C@H](O)[C@H]2O)cc1Cc1cc2ccccc2s1 [Compound 22]	–	241 nM	–	inhibition at 0.3 µM (human SGLT1): 62.7%
[2H]C([2H])(c1ccc2c(c1)OCCO2)c1cc([C@@H]2O[C@H](CO)[C@@H](F)[C@H](O)[C@H]2O)ccc1C [Compound 167]	–	–	80.1% @ 0.3 μM	SGLT1 %-inhibition (human SGLT1): 37.9% @ 0.3 μM
COc1cc(C)c(Cc2cc3ccccc3s2)cc1[C@@H]1O[C@H](CO)[C@@H](F)[C@H](O)[C@H]1O [Compound 18]	68 nM	18 nM	–	–
O=C(N1CCCC1)N1CCc2sc(Cc3cc([C@@H]4O[C@H](CO)[C@@H](F)[C@H](O)[C@H]4O)cc4c3OCC4)cc2C1 [Compound 70]	100 nM	162 nM	–	–
COc1cc(C)c(Cc2cc3c(s2)CCN(c2ncc(C)s2)C3)cc1[C@@H]1O[C@H](CO)[C@@H](F)[C@H](O)[C@H]1O [Compound 123]	1360 nM	100 nM	–	–
Cc1c([C@@H]2O[C@H](CO)[C@@H](F)[C@H](O)[C@H]2O)cc(Cc2ccc3c(c2)SCCO3)c2c1CCO2 [Compound 131]	231 nM	12 nM	–	–
COc1cc(O)c([C@@H]2O[C@H](CO)[C@@H](F)[C@H](O)[C@H]2O)cc1Cc1cc2ccccc2s1 [Compound 2, (2S,3R,4R,5S,6R)-2-(5-(benzo[b]thiophen-2-ylmethyl)-2-hydroxy-4-methoxyphenyl)-5-fluoro-6-(hydroxymethyl)tetrahydro-2H-pyran-3,4-diol]	9 nM	8 nM	–	–
CCOC(=O)N1CCc2sc(Cc3cc([C@@H]4O[C@H](CO)[C@@H](F)[C@H](O)[C@H]4O)c(O)cc3C)cc2C1 [Compound 64]	156 nM	36 nM	–	–
CCOc1ccc(Cc2cc([C@@H]3O[C@H](CO)[C@@H](F)[C@H](O)[C@H]3O)c(O)c3c2OCC3)cc1 [Compound 63]	122 nM	4 nM	–	–
[2H]C([2H])(c1ccc2c(c1)OCCO2)c1cc([C@@H]2O[C@H](CO)[C@@H](F)[C@H](O)[C@H]2O)c(OC)c2c1OCC2 [Compound 163, (2S,3R,4R,5S,6R)-2-[7-[dideuterio(2,3-dihydro-1,4-benzodioxin-6-yl)methyl]-4-methoxy-2,3-dihydrobenzofuran-5-yl]-5-fluoro-6-(hydroxymethyl)tetrahydropyran-3,4-diol]	50 nM	8 nM	–	–
COc1cc(Cl)c(Cc2cc3c(s2)CCN(C(=O)N2CCCC2)C3)cc1[C@@H]1O[C@H](CO)[C@@H](F)[C@H](O)[C@H]1O [Compound 96]	–	–	18.2% @ 0.3 μM	SGLT1 %-inhibition (human SGLT1): 29.1% @ 0.3 μM
COc1cc(O)c([C@@H]2O[C@H](CO)[C@@H](F)[C@H](O)[C@H]2O)cc1Cc1cc2c(s1)CCN(C#N)C2 [Compound 100]	95 nM	8 nM	–	–
CC1(C)Oc2c(Cc3ccc4c(c3)OCCO4)cc([C@@H]3O[C@H](CO)[C@@H](F)[C@H](O)[C@H]3O)cc2C1CO (stereo partly drawn) [Compound 85]	–	–	10.1% @ 0.3 μM	SGLT1 %-inhibition (human SGLT1): 37.4% @ 0.3 μM
COc1ccc([C@@H]2O[C@H](CO)[C@@H](F)[C@H](O)[C@H]2O)cc1Cc1cc2c(s1)CCN(C#N)C2 [Compound 120]	–	–	54.7% @ 0.3 μM	SGLT1 %-inhibition (human SGLT1): 6.6% @ 0.3 μM
CCOc1cc(O)c([C@@H]2O[C@H](CO)[C@@H](F)[C@H](O)[C@H]2O)cc1Cc1cc2ccccc2s1 [Compound 30]	–	–	51.0% @ 0.3 μM	–
CC(C)Oc1cc(O)c([C@@H]2O[C@H](CO)[C@@H](F)[C@H](O)[C@H]2O)cc1Cc1cc2ccccc2s1 [Compound 32]	–	–	15.3% @ 0.3 μM	–
COc1cc(O)c([C@@H]2O[C@H](CN)[C@@H](F)[C@H](O)[C@H]2O)cc1Cc1cc2ccccc2s1 [Compound 28]	–	–	50.3% @ 0.3 μM	–
